Assay results taken from patent EP0398425A1, “Antirhinoviral piperidinyl, pyrrolidinyl and piperazinyl alkylphenol ethers” (JANSSEN PHARMACEUTICA N.V., priority 1989, dated 1990).
In brackets after ≈: the same amount, converted by molar mass.

Key:
[1] = tested on: Human Rhinovirus serotypes HRV- 2,-29,-39,-85,-9,-15,-51,-59,-63,-89,-41; assay: Picornavirus Minimal Inhibitory Concentration Test (cytopathic effect reduction assay), first panel of rhinoviruses; assay type: cell-based; settings: Human rhinovirus sp.; medium value of the IC50-values of all serotypes of the first panel; Ohio Hela cells, 3 to 5 days at 33°C; IC50 = concentration protecting 50% of the cells from cytopathic effects; read-out: Med₁
Procedure: (§1) The Minimal Inhibitory Concentration of the compounds of the present invention against the Human Rhinovirus strains (HRV) -2,-9,-14,-15,-29,-39,-41,-42,-45,-51, -59, -63,-70,-72,-85,-86 and -89 was determined by a standard cytopathic effect reduction assay as follows. To each of the ninty six (96) wells of a microtiter 96 well tissue culture plate there was added 60 µl of a Ohio Hela cell maintenance medium [Eagle's Basal medium supplemented with 5% Foetal Calf Serum (FCS)]. To two wells there was added 60 µl of an appropriate starting dilution of a compound of formula (I) and two-fold dilutions were made to cover a wide range of compound concentrations. Subsequently there were added 120 µl of an infectious solution of virus in Eagle's Basal Medium with 2% Hepes buffer, 2% FCS and 30 mM MgCl₂ to all wells except cell and compound controls. Said infectious virus solution having a TCID₅₀-value (Tissue Culture Infectious Dose) of about 100.
(§2) The TCID₅₀-value is the dose of viruses which initiates a cytopathic effect in 50% of the inoculated cells. 150 µl of the thus obtained virus-compound mixtures were then transferred to microtitre plates with subconfluent Ohio Hela Cells, grown in 100 µl of maintenance medium. Appropriate virus controls, cell controls and compound controls were included in each test. Plates were incubated for 3 to 5 days at 33°C in 5% CO₂ atmosphere. […] The IC₅₀-value for each virus-compound series was taken as the concentration in ng/ml that protected 50% of the cells from cytopathic effects with respect to the untreated controls. In the standard test procedure, the compounds were tested against two panels of rhinoviruses, a first panel consisting of serotypes HRV- 2,-29,-39,-85,-9,-15,-51,-59,-63,-89,-41 and the other panel consisting of HRV-42,-45,-14,-70,-72 and -86.
(§3) The IC₅₀-value for each rhinovirus serotype was determined, and the efficacy of each compound was determined in terms of the Med₁-value and Med₂-value, which is the medium value of the IC₅₀-values of all serotypes from the first and second panel respectively.

[2] = tested on: Human Rhinovirus serotypes HRV-42,-45,-14,-70,-72 and -86; assay: Picornavirus Minimal Inhibitory Concentration Test (cytopathic effect reduction assay), second panel of rhinoviruses; assay type: cell-based; settings: Human rhinovirus sp., HRV42; medium value of the IC50-values of all serotypes of the second panel; Ohio Hela cells, 3 to 5 days at 33°C; IC50 = concentration protecting 50% of the cells from cytopathic effects; read-out: Med₂
Procedure: as §1, §2, §3

Structure (SMILES)	IC50 [1] [µg/mL]	IC50 [2] [µg/mL]
CCOC(=O)c1ccc(OCCC2CCN(c3nnc(C)s3)CC2)cc1 [Compound 13, ethyl 4-[2-[1-(5-methyl-1,3,4-thiadiazol-2-yl)-4-piperidinyl]ethoxy]benzoate]	0.01 (≈ 0.0266 µM)	0.035 (≈ 0.0932 µM)
CCOC(=O)c1ccc(OCCC2CCN(c3nsc4ccccc34)CC2)cc1 [Compound 19, ethyl 4-[2-[1-(1,2-benzisothiazol-3-yl)-4-piperidinyl]ethoxy]benzoate]	0.144 (≈ 0.351 µM)	0.25 (≈ 0.609 µM)
CCc1noc(-c2ccc(OCCC3CCN(c4nnc(Br)s4)CC3)cc2)n1 [Compound 61]	0.011 (≈ 0.0237 µM)	0.244 (≈ 0.525 µM)
CCOC(=O)c1ccc(OCCC2CCN(C3=NS(=O)(=O)c4ccccc43)CC2)cc1 [Compound 14]	0.053 (≈ 0.12 µM)	0.344 (≈ 0.777 µM)
CCOC(=O)c1ccc(OCCN2CCN(c3nnc(Br)s3)CC2)cc1 [Compound 27]	0.044 (≈ 0.0997 µM)	0.011 (≈ 0.0249 µM)
CCOC(=O)c1ccc(OCCN2CCN(c3nc4ccccc4s3)CC2)cc1 [Compound 46, ethyl 4-[2-[4-(2-benzothiazolyl)-1-piperazinyl]ethoxy]benzoate]	0.312 (≈ 0.758 µM)	0.027 (≈ 0.0656 µM)
CCOC(=O)c1ccc(OCCC2CCN(c3nnc(Br)s3)CC2)cc1 [Compound 17]	0.006 (≈ 0.0136 µM)	0.0705 (≈ 0.16 µM)
CCOC(=O)c1ccc(OCCCN2CCN(c3nnc(Br)s3)CC2)cc1 [Compound 29]	0.175 (≈ 0.384 µM)	0.037 (≈ 0.0813 µM)

The remaining lines, values ahead:

IC50 [1] [µg/mL]	IC50 [2] [µg/mL]	Structure (SMILES)
0.156 (≈ 0.349 µM)	0.097 (≈ 0.217 µM)	CCOC(=O)c1ccc(OCCCN2CCN(c3nc(C(=O)OCC)cs3)CC2)cc1 [Compound 49]
0.088 (≈ 0.203 µM)	0.009 (≈ 0.0208 µM)	CCOC(=O)c1ccc(OCCN2CCN(c3nc(C(=O)OCC)cs3)CC2)cc1 [Compound 34, ethyl 2-[4-[2-[4-(ethoxycarbonyl)phenoxy]ethyl]-1-piperazinyl]-4-thiazolecarboxylate]
0.031 (≈ 0.0717 µM)	0.4 (≈ 0.925 µM)	CCOC(=O)c1ccc(OCCC2CCN(c3nc(C(=O)OCC)cs3)CC2)cc1 [Compound 6]
0.376 (≈ 0.999 µM)	0.172 (≈ 0.457 µM)	CCOC(=O)c1ccc(OCCCN2CCN(c3nncs3)CC2)cc1 [Compound 35]
